Source: patent US5578622A, “Isothiazole derivatives and their uses” (Asamura Patent Office, priority 1994, dated 1996)

How the values were obtained:
[1] = test system: Trichoderma viride; assay: Test for wood rotting-preventing effect (mycelium growth inhibition on malt extract agar); type: cell-based; conditions: 28° C.±2° C., 2 to 10 days, read-out: Rotting preventing effect (mycelium growth-inhibitory rate), TRV
Procedure: (§1) The following fungi were cultured in agar media, respectively, and mycelial disks on the media were stamped out together with the agar using a cork borer of 4 mm in diameter. The resulting mycelial disks on agar were used as an inoculum. Each test compound of 50 ppm was added to a malt extract agar medium and added in parts to Petri dishes. The above prepared inoculum was put on the Petri dishes and cultured at 28° C.±2° C. Two to ten days after inoculation, the diameter of the mycelial disk of each fungus was measured, and the mycelium growth-inhibitory rate was obtained according to the following equation. [formula] The mycelium growth-inhibitory rate (%) is indicated by the following symbols as a fungicidal effect on each fungus, and the results are shown in Table 2. | TRV: Trichoderma viride

[2] = test system: Rhizopus nigricans; assay: as above; type: cell-based; conditions: Rhizopus stolonifer, 28° C.±2° C., 2 to 10 days, read-out: Rotting preventing effect (mycelium growth-inhibitory rate), RHN
Procedure: as §1, with “RHN: Rhizopus nigricans” for “TRV: Trichoderma viride”

[3] = test system: Tyromyces palustris; assay: as above; type: cell-based; conditions: 28° C.±2° C., 2 to 10 days, read-out: Rotting preventing effect (mycelium growth-inhibitory rate), TYP
Procedure: as §1, with “TYP: Tyromyces palustris” for “TRV: Trichoderma viride”

[4] = test system: Aspergillus niger; assay: as above; type: cell-based; conditions: 28° C.±2° C., 2 to 10 days, read-out: Rotting preventing effect (mycelium growth-inhibitory rate), ASN
Procedure: as §1, with “ASN: Aspergillus niger” for “TRV: Trichoderma viride”

[5] = test system: Gibberella fujikuroi ("Bakanae" disease of rice); assay: Test for rice seed-disinfecting effect; type: in vivo; conditions: Fusarium fujikuroi, 504 h, seed immersion 25° C. 24 hours, three weeks after treatment, read-out: Controlling effect (control of disease), "Bakanae" disease of rice
Procedure: 2-1 Test for rice seed-disinfecting effect
Unhulled rice infected with Gibberella fujikuroi ("Bakanae" disease of rice) was immersed in a test compound adjusted to 1000 ppm at 25° C. for 24 hours. Water was lightly swished off the seed, which was then sowed and germinated for two days. Three weeks after treatment with the solution containing the compound, the rate of the infected seedlings was examined, and the control of disease was calculated by comparison with that of the untreated plot. The control of disease was shown as a controlling effect on the basis of the following standard.

[6] = test system: Pseudoperonospora cubensis; assay: Test for controlling effect on downy mildew of cucumber; type: in vivo; conditions: 168 h, 200 ppm spray, one day before inoculation, cucumber 2-leaf stage, read-out: Controlling effect (control of disease), Downy mildew of cucumber
Procedure: 2-2 Test for controlling effect on downy mildew of cucumber (Pseudoperonospora cubensis) A test compound adjusted to 200 ppm was sprayed onto cucumber at the 2-leaf stage cultivated in pots. After one day, the cucumber was inoculated by spraying the zoospore suspension of Pseudoperonospora cubensis. After inoculation, the cucumber was placed in a 25° C.-humid room for 1 day and then in a greenhouse for 6 days. Thus, the cucumber was made to be infected with downy mildew. The control of disease of the test compound is calculated by comparing the degree of infection of each leaf with that in the untreated plot. The control of disease is shown as a controlling effect in the same manner as in Test Example 2-1.

[7] = test system: Rhizoctonia solani; assay: Test for controlling effect on sheath blight of rice; type: in vivo; conditions: 120 h, 200 ppm spray, 24 hours after inoculation, rice 4-leaf stage, five days after inoculation, read-out: Controlling effect (control of disease), Sheath blight of rice
Procedure: 2-3 Test for controlling effect on sheath blight of rice (Rhizoctonia solani) Rice seedlings at the 4-leaf stage were inoculated with the mycelium of sheath blight of rice (Rhizoctonia solani). After 24 hours, a test medicine solution adjusted to 200 ppm was sprayed onto the seedlings. After air-drying, the seedlings were placed in a humid room for 24 hours where the temperature was kept at 28° C. and humidity was kept at 98%. Thereafter, the seedlings were transferred to a greenhouse, and five days after inoculation, the degree of infected area was examined. The control of disease was calculated by comparison with that in the untreated plot. The control of disease is shown as a controlling effect in the same manner as in Test Example 2-1.

Row | Structure (SMILES) | inhibition at 50 ppm [1] [%] | inhibition at 50 ppm [2] [%] | inhibition at 50 ppm [3] [%] | inhibition at 50 ppm [4] [%] | pest or weed control at 1000 ppm [5] [%] | pest or weed control at 200 ppm [6] [%] | pest or weed control at 200 ppm [7] [%]
1 | C#CCSc1snc(OCC#CI)c1C#N [Compound 10] | 80 to 94 | 80 to 94 | 95 to 100 | 95 to 100 |  |  | 
2 | CCSc1snc(OCOCC#CI)c1C#N [Compound 86, 3-(3-iodo-2-propynyloxymethyloxy)-4-cyano-5-ethylthioisothiazole] | 95 to 100 | 95 to 100 | 95 to 100 | 95 to 100 | 95 to 100 | 95 to 100 | 80 to 94
3 | COCCOc1nsc(OCCC#CI)c1C#N [Compound 84] | 95 to 100 | 95 to 100 | 95 to 100 | 95 to 100 |  |  | 
4 | CCCSc1snc(OCOCC#CI)c1C#N [Compound 87] | 95 to 100 | 95 to 100 | 95 to 100 | 95 to 100 |  |  | 
5 | N#Cc1c(SCOCC#CI)nsc1SCOCC#CI [Compound 140] |  |  |  |  | 80 to 94 | 95 to 100 | 80 to 94
6 | COc1snc(OCOCC#CI)c1C#N [Compound 95] | 95 to 100 | 95 to 100 | 95 to 100 | 95 to 100 |  |  | 
7 | C=CC[S+]([O-])c1snc(OCC#CI)c1C#N (stereo not shown) [Compound 47] |  |  |  |  | 95 to 100 | 80 to 94 | 95 to 100
8 | COCCSc1snc(OCC#CI)c1C#N [Compound 15] |  |  |  |  | 95 to 100 | 80 to 94 | 80 to 94
9 | CC(C)Oc1nsc(OCC#CI)c1C#N [Compound 51] | 95 to 100 | 95 to 100 | 95 to 100 | 95 to 100 |  |  | 
10 | C=CCSc1snc(OCC#CI)c1C#N [Compound 8] |  |  |  |  | 95 to 100 | 95 to 100 | 60 to 79
11 | COc1nsc(OCCC#CI)c1C#N [Compound 80, 3-methoxy-4-cyano-5-(4-iodo-3-butynyloxy)isothiazole] | 95 to 100 | 95 to 100 | 95 to 100 | 95 to 100 | 95 to 100 | 95 to 100 | 80 to 94
12 | CSc1snc(OCOC(C)(C)C#CI)c1C#N [Compound 100, 3-(3-iodo-l,l-dimethyl-2-propynyloxymethyloxy)-4-cyano-5-methylthioisothiazole] | 95 to 100 | 80 to 94 | 95 to 100 | 80 to 94 | 95 to 100 | 95 to 100 | 95 to 100
13 | CSc1snc(OCOC(C)C#CI)c1C#N (stereo not shown) [Compound 110] | 95 to 100 | 95 to 100 | 95 to 100 | 95 to 100 | 95 to 100 | 95 to 100 | 95 to 100
14 | N#Cc1c(OCC#CI)nsc1N1CCOCC1 [Compound 35] | 95 to 100 | 80 to 94 | 95 to 100 | 95 to 100 | 80 to 94 | 95 to 100 | 80 to 94
15 | CC(C#CI)OCOc1nsc(N(C)C)c1C#N (stereo not shown) [Compound 115] | 95 to 100 | 95 to 100 | 95 to 100 | 95 to 100 | 95 to 100 | 80 to 94 | 95 to 100
16 | CC(OCC#CI)Oc1nsc(SC(F)F)c1C#N (stereo not shown) [Compound 122] | 95 to 100 | 95 to 100 | 95 to 100 | 95 to 100 | 95 to 100 | 95 to 100 | 95 to 100
17 | N#Cc1c(OCC#CI)nsc1SC1CCCC1 [Compound 7] | 60 to 79 | 60 to 79 | 95 to 100 | 60 to 79 |  |  | 
18 | CCOc1nsc(SC(C)OCC#CI)c1C#N (stereo not shown) [Compound 126] | 95 to 100 | 95 to 100 | 95 to 100 | 95 to 100 |  |  | 
19 | CC(C)Oc1snc(OCOCC#CI)c1C#N [Compound 98] | 95 to 100 | 95 to 100 | 95 to 100 | 95 to 100 |  |  | 
20 | N#Cc1c(OCC#CI)nsc1S(=O)(=O)C1CCCC1 [Compound 46] | 60 to 79 | 60 to 79 | 95 to 100 | 80 to 94 |  |  | 
21 | N#CCSc1snc(OCC#CI)c1C#N [Compound 17] |  |  |  |  | 95 to 100 | 95 to 100 | 95 to 100
22 | CCSc1snc(SCOCC#CI)c1C#N [Compound 129] | 95 to 100 | 80 to 94 | 95 to 100 | 80 to 94 |  |  | 
23 | N#Cc1c(OCC#CI)nsc1SCOCC#CI [Compound 142] | 95 to 100 | 95 to 100 | 95 to 100 | 95 to 100 |  |  | 
24 | CCOc1snc(OCOC(C)C#CI)c1C#N (stereo not shown) [Compound 114] |  |  |  |  | 95 to 100 | 95 to 100 | 80 to 94
25 | CSc1snc(OCOCC#CI)c1C#N [Compound 85] | 95 to 100 | 95 to 100 | 95 to 100 | 95 to 100 |  |  | 
26 | CC(C)Sc1snc(OCCC#CI)c1C#N [Compound 72] | 95 to 100 | 95 to 100 | 95 to 100 | 95 to 100 |  |  | 
27 | CCSc1snc(OCC#CI)c1C#N [Compound 2] | 80 to 94 | 80 to 94 | 95 to 100 | 60 to 79 |  |  | 
28 | CCCCN(C)c1snc(OCC#CI)c1C#N [Compound 32] |  |  |  |  | 80 to 94 | 95 to 100 | 60 to 79
29 | C=CCSc1snc(SCOCC#CI)c1C#N [Compound 132] | 95 to 100 | 95 to 100 | 95 to 100 | 95 to 100 |  |  | 
